Experimental data reported in ChEMBL document CHEMBL1152027, “The prooligonucleotide approach. I: Esterase-mediated reversibility of dithymidine S-alkyl-phosphorothiolates to dithymidine phosphorothioates” (Bioorg Med Chem Lett, 1995).

Legend:
[1] = Half-life in the CEM cell extracts; assay type: ADME, CCRF-CEM; conditions: human
[2] = Half-life in the culture medium (RPMI 1640+10% fetal calf serum FCS); assay type: ADME, cell-free, Bos taurus; conditions: cattle

| Compound | half-life [1] | half-life [2] |
| --- | --- | --- |
| Cc1cn(-c2cc(O)c(COP(=O)(Oc3cc(-n4cc(C)c(=O)[nH]c4=O)oc3CO)SCOC(=O)C(C)(C)C)o2)c(=O)[nH]c1=O (stereo unspecified) | 0.667 h | 6 h |
| CC(=O)SCCSP(=O)(OCc1oc(-n2cc(C)c(=O)[nH]c2=O)cc1O)Oc1cc(-n2cc(C)c(=O)[nH]c2=O)oc1CO (stereo unspecified) | < 0.0833 h | 7 h |
| CC(=O)SCSP(=O)(OCc1oc(-n2cc(C)c(=O)[nH]c2=O)cc1O)Oc1cc(-n2cc(C)c(=O)[nH]c2=O)oc1CO (stereo unspecified) | < 0.0833 h | 1 h |
